According to patent US20170190671A1, “BIS(ARYL)CATECHOL DERIVATIVES AS HERBICIDES” (E I DU PONT DE NEMOURS AND COMPANY, priority 2014, published 2017):

Legend:
Test in all cases: Test E postemergence
Assay type in all cases: in vivo
Conditions in all cases: scale 0 to 100
[1] = test system: barnyardgrass (Echinochloa crus-galli)
From the text: (§1) Seeds of plant species selected from corn (Zea mays), soybean (Glycine max), velvetleaf (Abutilon theophrasti), cocklebur (common cocklebur, Xanthium strumarium), lambsquarters (Chenopodium album), wild poinsettia (Euphorbia heterophylla), palmer pigweed (Amaranthus palmeri), waterhemp (common waterhemp, Amaranthus rudis), surinam grass (Brachiaria decumbens), large (Lg) crabgrass (Digitaria sanguinalis), Brazilian crabgrass (Digitaria horizontalis), fall panicum (Panicum dichotomiflorum), giant foxtail (Setaria faberii), green foxtail (Setaria viridis), goosegrass (Eleusine indica), johnsongrass (Sorghum halepense), ragweed (common ragweed, Ambrosia elatior), barnyardgrass (Echinochloa crus-galli), sandbur (southern sandbur, Cenchrus echinatus), arrowleaf sida (Sida rhombifolia), Italian ryegrass (Lolium multiflorum), dayflower (Virginia (VA) dayflower, Commelina virginica), field bindweed (Convolvulus arvensis), morningglory (Ipomoea coccinea), nightshade (eastern black nightshade, Solanum ptycanthum), kochia (Kochia scoparia), yellow nutsedge (Cyperus esculentus), horseweed (Conyza canadensis), and hairy beggarticks (Bidens pilosa), were planted into a silt loam soil and treated preemergence with test chemicals formulated in a non-phytotoxic solvent mixture which included a surfactant.
(§2) At the same time, plants from these crop and weed species and also waterhemp_RES1, (ALS & Triazine resistant common waterhemp, Amaranthus rudis), and waterhemp_RES2, (ALS & HPPD resistant common waterhemp, Amaranthus rudis) were planted in pots containing Redi-Earth® planting medium (Scotts Company, 14111 Scottslawn Road, Marysville, Ohio 43041) comprising spaghnum peat moss, vermiculite, wetting agent and starter nutrients were treated with postemergence applications of test chemicals formulated in the same manner. Plants ranged in height from 2 to 18 cm for postemergence treatments (1- to 4-leaf stage). Treated plants and controls were maintained in a greenhouse for 14 to 21 days, after which time all species were compared to controls and visually evaluated. Plant response ratings, summarized in Table E, are based on a scale of 0 to 100 where 0 is no effect and 100 is complete control. A dash (-) response means no test result.

soybean (Glycine max) = test system: soybean (Glycine max)
From the text: as §1, §2

[2] = test system: ragweed (common ragweed, Ambrosia elatior)
From the text: as §1, §2

[3] = test system: dayflower (Virginia (VA) dayflower, Commelina virginica)
From the text: as §1, §2

[4] = test system: horseweed (Conyza canadensis)
From the text: as §1, §2

corn (Zea mays) = test system: corn (Zea mays)
From the text: as §1, §2

N#Cc1cccc(Oc2ncc(Cl)cn2)c1Oc1ccc(Cl)cc1 [Compound 36]
Plant response rating, Barnyardgrass ([1]; 16 g ai/ha): 20 | Plant response rating, Barnyardgrass ([1]; 31 g ai/ha): 25 | Plant response rating, Barnyardgrass ([1]; 62 g ai/ha): 30 | Plant response rating, Barnyardgrass ([1]; 125 g ai/ha): 50 | Plant response rating, Soybean (soybean (Glycine max); 16 g ai/ha): 60 | Plant response rating, Soybean (soybean (Glycine max); 31 g ai/ha): 50 | Plant response rating, Soybean (soybean (Glycine max); 62 g ai/ha): 70 | Plant response rating, Soybean (soybean (Glycine max); 125 g ai/ha): 50 | Plant response rating, Ragweed ([2]; 16 g ai/ha): 15 | Plant response rating, Ragweed ([2]; 31 g ai/ha): 25 | Plant response rating, Ragweed ([2]; 62 g ai/ha): 35 | Plant response rating, Ragweed ([2]; 125 g ai/ha): 50 | Plant response rating, Dayflower, VA ([3]; 16 g ai/ha): 20 | Plant response rating, Dayflower, VA ([3]; 31 g ai/ha): 50 | Plant response rating, Dayflower, VA ([3]; 62 g ai/ha): 60 | Plant response rating, Dayflower, VA ([3]; 125 g ai/ha): 70 | Plant response rating, Horseweed ([4]; 16 g ai/ha): 0 | Plant response rating, Horseweed ([4]; 31 g ai/ha): 0 | Plant response rating, Horseweed ([4]; 62 g ai/ha): 5 | Plant response rating, Horseweed ([4]; 125 g ai/ha): 10 | Plant response rating, Corn (corn (Zea mays); 16 g ai/ha): 10 | Plant response rating, Corn (corn (Zea mays); 31 g ai/ha): 20 | Plant response rating, Corn (corn (Zea mays); 62 g ai/ha): 20 | Plant response rating, Corn (corn (Zea mays); 125 g ai/ha): 25

N#Cc1cccc(Oc2ncc(Cl)cn2)c1Oc1ncc(C(F)(F)F)cn1 [Compound 38, 3-[(5-chloro-2-pyrimidinyl)oxy]-2-[[5-(trifluoromethyl)-2-pyrimidinyl]oxy]-benzonitrile]
Plant response rating, Barnyardgrass ([1]; 16 g ai/ha): 0 | Plant response rating, Barnyardgrass ([1]; 31 g ai/ha): 10 | Plant response rating, Barnyardgrass ([1]; 62 g ai/ha): 10 | Plant response rating, Barnyardgrass ([1]; 125 g ai/ha): 20 | Plant response rating, Soybean (soybean (Glycine max); 16 g ai/ha): 70 | Plant response rating, Soybean (soybean (Glycine max); 31 g ai/ha): 80 | Plant response rating, Soybean (soybean (Glycine max); 62 g ai/ha): 95 | Plant response rating, Soybean (soybean (Glycine max); 125 g ai/ha): 98 | Plant response rating, Ragweed ([2]; 16 g ai/ha): 20 | Plant response rating, Ragweed ([2]; 31 g ai/ha): 20 | Plant response rating, Ragweed ([2]; 62 g ai/ha): 40 | Plant response rating, Ragweed ([2]; 125 g ai/ha): 50 | Plant response rating, Dayflower, VA ([3]; 16 g ai/ha): 40 | Plant response rating, Dayflower, VA ([3]; 31 g ai/ha): 50 | Plant response rating, Dayflower, VA ([3]; 62 g ai/ha): 60 | Plant response rating, Dayflower, VA ([3]; 125 g ai/ha): 60 | Plant response rating, Horseweed ([4]; 16 g ai/ha): 5 | Plant response rating, Horseweed ([4]; 31 g ai/ha): 10 | Plant response rating, Horseweed ([4]; 62 g ai/ha): 20 | Plant response rating, Horseweed ([4]; 125 g ai/ha): 40 | Plant response rating, Corn (corn (Zea mays); 16 g ai/ha): 0 | Plant response rating, Corn (corn (Zea mays); 31 g ai/ha): 0 | Plant response rating, Corn (corn (Zea mays); 62 g ai/ha): 15 | Plant response rating, Corn (corn (Zea mays); 125 g ai/ha): 20

Fc1cccc(Oc2ncc(Cl)cn2)c1Oc1ncc(C(F)(F)F)cn1 [Compound 43, 5-chloro-2-[5-fluoro-6-[[5-(trifluoromethyl)-2-pyrimidinyl]oxy]phenoxy]pyrimidine]
Plant response rating, Barnyardgrass ([1]; 31 g ai/ha): 0 | Plant response rating, Barnyardgrass ([1]; 125 g ai/ha): 15 | Plant response rating, Soybean (soybean (Glycine max); 31 g ai/ha): 70 | Plant response rating, Soybean (soybean (Glycine max); 125 g ai/ha): 95 | Plant response rating, Ragweed ([2]; 31 g ai/ha): 50 | Plant response rating, Ragweed ([2]; 125 g ai/ha): 60 | Plant response rating, Dayflower, VA ([3]; 31 g ai/ha): 50 | Plant response rating, Dayflower, VA ([3]; 125 g ai/ha): 70 | Plant response rating, Horseweed ([4]; 31 g ai/ha): 0 | Plant response rating, Horseweed ([4]; 125 g ai/ha): 10 | Plant response rating, Corn (corn (Zea mays); 31 g ai/ha): 5 | Plant response rating, Corn (corn (Zea mays); 125 g ai/ha): 15
